Patent US5502035A, “N-terminus modified analogs of LHRH” (Tap Holdings Inc., priority 1994, dated 1996)
Non-standard residues stand in square brackets, D forms with d. Residues, ends and D or L forms follow the SMILES beside them. Groups on a side chain read outwards from the residue. *: point of attachment. dAla(benzothien-2-yl) = N[C@H](Cc1cc2ccccc2s1)C(=O)O; Shikimoyl = O=C(C1=C[C@@H](O)[C@@H](O)[C@H](O)C1)*; dPhe(4-Cl) = N[C@H](Cc1ccc(Cl)cc1)C(=O)O; d1Nal = N[C@H](Cc1cccc2ccccc12)C(=O)O; d2Nal = N[C@H](Cc1ccc2ccccc2c1)C(=O)O; Lys(iPr) = CC(C)NCCCC[C@H](N)C(=O)O; NMeY = CN[C@@H](Cc1ccc(O)cc1)C(=O)O; hArg = N=C(N)NCCCC[C@H](N)C(=O)O; d3Pal = N[C@H](Cc1cccnc1)C(=O)O; Isonicotinoyl = O=C(c1ccncc1)*; Nicotinoyl = O=C(c1cccnc1)*; 2Furoyl = O=C(c1ccco1)*; azaGly = NNC(=O)O; βAla = NCCC(=O)O; Sar = CNCC(=O)O

Target: T1, LHRH (Rattus norvegicus, UniProt P30969)
T1 construct: endogenous in cells; host or cells: rat pituitary cells (own knowledge of the cited Haviv 1989 method)
T1 sequence (P30969 1-327): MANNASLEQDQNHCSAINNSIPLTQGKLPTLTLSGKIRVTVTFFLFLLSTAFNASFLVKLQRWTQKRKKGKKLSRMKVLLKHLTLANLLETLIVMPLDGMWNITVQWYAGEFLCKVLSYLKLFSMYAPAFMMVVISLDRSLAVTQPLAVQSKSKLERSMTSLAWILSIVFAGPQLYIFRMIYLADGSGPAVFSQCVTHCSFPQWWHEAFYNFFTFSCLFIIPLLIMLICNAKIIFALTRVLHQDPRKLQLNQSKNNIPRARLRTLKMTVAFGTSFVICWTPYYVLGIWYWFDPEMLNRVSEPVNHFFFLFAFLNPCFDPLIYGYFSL
Assay: in vitro test for LHRH antagonist potency (pA2)
Format: cell-based
Details: negative logarithm of the antagonist concentration required to shift the response curve produced by the agonist leuprolide to two-fold higher concentration
In short: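 Antagonism read against the agonist leuprolide on rat LHRH receptor; value is pA2, the −log of antagonist concentration that doubles the agonist concentration needed for the same response.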

Row | Structure (SMILES) | Kb [pM]
1 | CC(C)C[C@H](NC(=O)[C@@H](CCCCNC(=O)C1=C[C@@H](O)[C@@H](O)[C@H](O)C1)NC(=O)[C@H](Cc1ccc(O)cc1)N(C)C(=O)[C@H](CO)NC(=O)[C@@H](Cc1cccnc1)NC(=O)[C@@H](Cc1ccc(Cl)cc1)NC(=O)[C@@H](Cc1ccc2ccccc2c1)NC(=O)CCNC(=O)C1=C[C@@H](O)[C@@H](O)[C@H](O)C1)C(=O)N[C@@H](CCCNC(=N)N)C(=O)N1CCC[C@H]1C(=O)N[C@H](C)C(N)=O [Example 27e, N-Shikimyl-3-Aminopropionyl-D2Nal-D4ClPhe-D3Pal-Ser-NMeTyr-DLys(Shik)-Leu- Arg-Pro-DAlaNH2] ({Shikimoyl-βAla}-[d2Nal][dPhe(4-Cl)][d3Pal]S[NMeY][dK](Shikimoyl)LRP[dA]-NH2) | 34.7
2 | CC(C)C[C@H](NC(=O)[C@@H](CCCCNC(=O)C1=C[C@@H](O)[C@@H](O)[C@H](O)C1)NC(=O)[C@H](Cc1ccc(O)cc1)N(C)C(=O)[C@H](CO)NC(=O)[C@@H](Cc1cccnc1)NC(=O)[C@@H](Cc1ccc(Cl)cc1)NC(=O)[C@@H](Cc1ccc2ccccc2c1)NC(=O)CCNC(=O)c1cccnc1)C(=O)N[C@@H](CCCCNC(=N)N)C(=O)N1CCC[C@H]1C(=O)N[C@H](C)C(N)=O [Example 28, N-Nicotinyl-3Aminopropionyl-D2Nal-D4ClPhe-D3Pal-Ser-NMeTyr-DLys(Shik)-Leu-Harg-Pro-DAlaNH2] ({Nicotinoyl-βAla}-[d2Nal][dPhe(4-Cl)][d3Pal]S[NMeY][dK](Shikimoyl)L[hArg]P[dA]-NH2) | 9.77
3 | CC(C)C[C@H](NC(=O)[C@@H](CCCCNC(=O)CNC(=O)c1cccnc1)NC(=O)[C@H](Cc1ccc(O)cc1)N(C)C(=O)[C@H](CO)NC(=O)[C@@H](Cc1cccnc1)NC(=O)[C@@H](Cc1ccc(Cl)cc1)NC(=O)[C@@H](Cc1ccc2ccccc2c1)NC(=O)C1=C[C@@H](O)[C@@H](O)[C@H](O)C1)C(=O)N[C@@H](CCCCNC(C)C)C(=O)N1CCC[C@H]1C(=O)N[C@H](C)C(N)=O [Example 29, N-Shikimyl-D2Nal-D4ClPhe-D3Pal-Ser-NMeTyr-DLys(GlyNic)-Leu-Lys(Isp)-Pro-DAlaNH2] (Shikimoyl-[d2Nal][dPhe(4-Cl)][d3Pal]S[NMeY][dK]([Gly-Nicotinoyl])L[Lys(iPr)]P[dA]-NH2) | 25.7
4 | CC(C)C[C@H](NC(=O)[C@@H](CCCCNC(=O)NNC(=O)c1cccnc1)NC(=O)[C@H](Cc1ccc(O)cc1)N(C)C(=O)[C@H](CO)NC(=O)[C@@H](Cc1cccnc1)NC(=O)[C@@H](Cc1ccc(Cl)cc1)NC(=O)[C@@H](Cc1ccc2ccccc2c1)NC(=O)C1=C[C@@H](O)[C@@H](O)[C@H](O)C1)C(=O)N[C@@H](CCCCNC(C)C)C(=O)N1CCC[C@H]1C(=O)N[C@H](C)C(N)=O [Example 30b, N-Shik-D2Nal-D4ClPhe-D3Pal-Ser-NMeTyr-DLys(Azagly-Nic)-Leu-Lys(Isp)-Pro-DAlaNH2] (Shikimoyl-[d2Nal][dPhe(4-Cl)][d3Pal]S[NMeY][dK]([azaGly-Nicotinoyl])L[Lys(iPr)]P[dA]-NH2) | 29.5
5 | CC(C)C[C@H](NC(=O)[C@@H](CCCCNC(=O)NNC(=O)c1ccco1)NC(=O)[C@H](Cc1ccc(O)cc1)N(C)C(=O)[C@H](CO)NC(=O)[C@@H](Cc1cccnc1)NC(=O)[C@@H](Cc1ccc(Cl)cc1)NC(=O)[C@@H](Cc1ccc2ccccc2c1)NC(=O)C1=C[C@@H](O)[C@@H](O)[C@H](O)C1)C(=O)N[C@@H](CCCCNC(C)C)C(=O)N1CCC[C@H]1C(=O)N[C@H](C)C(N)=O [Example 30c, N-Shik-D2Nal-D4ClPhe-D3Pal-Ser-NMeTyr-DLys(Azagly-2Fur)-Leu-Lys(Isp)-Pro-DAlaNH2] (Shikimoyl-[d2Nal][dPhe(4-Cl)][d3Pal]S[NMeY][dK]([azaGly-2Furoyl])L[Lys(iPr)]P[dA]-NH2) | 38
6 | CC(C)C[C@H](NC(=O)[C@@H](CCCCNC(=O)NNC(=O)c1cccnc1)NC(=O)[C@H](Cc1ccc(O)cc1)N(C)C(=O)[C@H](CO)NC(=O)[C@@H](Cc1cccnc1)NC(=O)[C@@H](Cc1ccc(Cl)cc1)NC(=O)[C@@H](Cc1ccc2ccccc2c1)NC(=O)NNC(=O)c1cccnc1)C(=O)N[C@@H](CCCCNC(C)C)C(=O)N1CCC[C@H]1C(=O)N[C@H](C)C(N)=O [Example 31, N-Nicotinyl-Azagly-D2Nal-D4ClPhe-D3Pal-Ser-NMeTyr-DLys(Azagly-Nic)-Leu-Lys(Isp)-Pro-DAlaNH2] (Nicotinoyl-[azaGly][d2Nal][dPhe(4-Cl)][d3Pal]S[NMeY][dK]([azaGly-Nicotinoyl])L[Lys(iPr)]P[dA]-NH2) | 19.5
7 | CC(C)C[C@H](NC(=O)[C@@H](CCCCNC(=O)c1cccnc1)NC(=O)[C@H](Cc1ccc(O)cc1)N(C)C(=O)[C@H](CO)NC(=O)[C@@H](Cc1cc2ccccc2s1)NC(=O)[C@@H](Cc1ccc(Cl)cc1)NC(=O)NNC(=O)c1cccnc1)C(=O)N[C@@H](CCCCNC(C)C)C(=O)N1CCC[C@H]1C(=O)N[C@H](C)C(N)=O [Example 32, N-Nicotinyl-Azagly-D4ClPhe-DBal-Ser-NMeTyr-DLys(Nic)-Leu-Lys(Isp)-Pro-DAlaNH2] (Nicotinoyl-[azaGly][dPhe(4-Cl)][dAla(benzothien-2-yl)]S[NMeY][dK](Nicotinoyl)L[Lys(iPr)]P[dA]-NH2) | 14.1
8 | CC(C)C[C@H](NC(=O)[C@@H](CCCCNC(=O)c1cccnc1)NC(=O)[C@H](Cc1ccc(O)cc1)N(C)C(=O)[C@H](CO)NC(=O)[C@@H](Cc1cc2ccccc2s1)NC(=O)[C@@H](Cc1ccc(Cl)cc1)NC(=O)NNC(=O)c1ccco1)C(=O)N[C@@H](CCCCNC(C)C)C(=O)N1CCC[C@H]1C(=O)N[C@H](C)C(N)=O [Example 33a, N-(2-Furoyl)-Azagly-D4ClPhe-DBal-Ser-NMeTyr-DLys(Nic)-Leu-Lys(Isp)-Pro-DAlaNH2] (2Furoyl-[azaGly][dPhe(4-Cl)][dAla(benzothien-2-yl)]S[NMeY][dK](Nicotinoyl)L[Lys(iPr)]P[dA]-NH2) | 6.31
9 | CC(C)C[C@H](NC(=O)[C@@H](CCCCNC(=O)c1cccnc1)NC(=O)[C@H](Cc1ccc(O)cc1)N(C)C(=O)[C@H](CO)NC(=O)[C@@H](Cc1cc2ccccc2s1)NC(=O)[C@@H](Cc1ccc(Cl)cc1)NC(=O)NNC(=O)c1ccncc1)C(=O)N[C@@H](CCCCNC(C)C)C(=O)N1CCC[C@H]1C(=O)N[C@H](C)C(N)=O [Example 33b, N-Isonicotinyl-Azagly-D4ClPhe-DBal-Ser-NMeTyr-DLys(Nic)-Leu-Lys(Isp)-Pro-DAlaNH2] (Isonicotinoyl-[azaGly][dPhe(4-Cl)][dAla(benzothien-2-yl)]S[NMeY][dK](Nicotinoyl)L[Lys(iPr)]P[dA]-NH2) | 20
10 | CC(C)C[C@H](NC(=O)[C@@H](CCCCNC(=O)c1cccnc1)NC(=O)[C@H](Cc1ccc(O)cc1)N(C)C(=O)[C@H](CO)NC(=O)[C@@H](Cc1cccc2ccccc12)NC(=O)[C@@H](Cc1ccc(Cl)cc1)NC(=O)NNC(=O)c1cccnc1)C(=O)N[C@@H](CCCCNC(C)C)C(=O)N1CCC[C@H]1C(=O)N[C@H](C)C(N)=O [Example 33c, N-Nicotinyl-Azagly-D4ClPhe-D1Nal-Ser-NMeTyr-DLys(Nic)-Leu-Lys(Isp)-Pro-DAlaNH2] (Nicotinoyl-[azaGly][dPhe(4-Cl)][d1Nal]S[NMeY][dK](Nicotinoyl)L[Lys(iPr)]P[dA]-NH2) | 5.01
11 | CC(C)C[C@H](NC(=O)[C@@H](CCCCNC(=O)c1cccnc1)NC(=O)[C@H](Cc1ccc(O)cc1)N(C)C(=O)[C@H](CO)NC(=O)[C@@H](Cc1cccc2ccccc12)NC(=O)[C@@H](Cc1ccc(Cl)cc1)NC(=O)CN(C)C(=O)CNC(=O)c1cccnc1)C(=O)N[C@@H](CCCCNC(C)C)C(=O)N1CCC[C@H]1C(=O)N[C@H](C)C(N)=O [Example 35a, Nic-Gly-Sar-D4ClPhe-D1Nal-Ser-NMeTyr-DLys(Nic)-Leu-Lys(Isp)-Pro-DAlaNH2] (Nicotinoyl-G[Sar][dPhe(4-Cl)][d1Nal]S[NMeY][dK](Nicotinoyl)L[Lys(iPr)]P[dA]-NH2) | 100
12 | CC(C)C[C@H](NC(=O)[C@@H](CCCCNC(=O)c1cccnc1)NC(=O)[C@H](Cc1ccc(O)cc1)N(C)C(=O)[C@H](CO)NC(=O)[C@@H](Cc1cc2ccccc2s1)NC(=O)[C@@H](Cc1ccc(Cl)cc1)NC(=O)CN(C)C(=O)CNC(=O)c1cccnc1)C(=O)N[C@@H](CCCCNC(C)C)C(=O)N1CCC[C@H]1C(=O)N[C@H](C)C(N)=O [Example 35b, Nic-Gly-Sar-D4ClPhe-DBal-Ser-NMeTyr-DLys(Nic)-Leu-Lys(Isp)-Pro-DAlaNH2] (Nicotinoyl-G[Sar][dPhe(4-Cl)][dAla(benzothien-2-yl)]S[NMeY][dK](Nicotinoyl)L[Lys(iPr)]P[dA]-NH2) | 79.4
13 | CC(C)C[C@H](NC(=O)[C@@H](CCCCNC(=O)c1cccnc1)NC(=O)[C@H](Cc1ccc(O)cc1)N(C)C(=O)[C@H](CO)NC(=O)[C@@H](Cc1cc2ccccc2s1)NC(=O)[C@@H](Cc1ccc(Cl)cc1)NC(=O)[C@@H](Cc1ccc2ccccc2c1)NC(=O)CCNC(=O)c1cccnc1)C(=O)N[C@@H](CCCCNC(C)C)C(=O)N1CCC[C@H]1C(=O)N[C@H](C)C(N)=O [Example 36, N-Nicotinyl-3-Aminopropionyl-D2Nal-D4ClPhe-DBal-Ser-NMeTyr-DLys(N-epsilon-Nicotinyl) -Leu-Lys(N-epsilon-Isopropyl)-Pro-DAlaNH2] ({Nicotinoyl-βAla}-[d2Nal][dPhe(4-Cl)][dAla(benzothien-2-yl)]S[NMeY][dK](Nicotinoyl)L[Lys(iPr)]P[dA]-NH2) | 22.4
